This is an account of results in publication PMC7700221, “Antiproliferative Homoleptic and Heteroleptic Phosphino Silver(I) Complexes: Effect of Ligand Combination on Their Biological Mechanism of Action” (Molecules, 2020).

For assay [1], the system named is MCF-7 breast cancer cells. Description: cells. The settings on record: Homo sapiens, MCF7, 72 h, read-out: IC50 (µM) ± S.D. MCF-7.
The subject of assay [2] is A431 cervical carcinoma cells. Description: cells. To be noted: Homo sapiens, A-431, 72 h, read-out: IC50 (µM) ± S.D. A431.
Assay [3] has as its system A375 melanoma cells. As to the kind of experiment: cells. The settings on record: Homo sapiens, A-375, 72 h, read-out: IC50 (µM) ± S.D. A375.
The subject of assay [4] is BxPC3 pancreatic cancer cells. Description: cells. The settings on record: Homo sapiens, BXPC-3, 72 h, read-out: IC50 (µM) ± S.D. BxPC3.
Assay [5] has as its system HCT-15 colon cancer cells. As to the kind of experiment: cells. To be noted: Homo sapiens, HCT-15, 72 h, read-out: IC50 (µM) ± S.D. HCT-15.
In assay [6] the test system is A549 lung cancer cells. As to the kind of experiment: cells. The settings on record: Homo sapiens, A549, 72 h, read-out: IC50 (µM) ± S.D. A549.
For assay [7], the system named is 2008 cells (cellular DNA fragmentation). The settings on record: 6 h.
Method: About 4 × 10^4 2008 cells were seeded in 25 cm^2 flasks in growth medium (6 mL). After 24 h, cells were incubated for 3h with 2.5µM of tested compounds. Cells were washed twice with cold PBS, harvested, centrifuged, and DNA fragmentation was measured by the alkaline comet assay. Low melting point agarose, 300 μL (Trevigen Inc., Gaithersburg, MD, USA) was heated to 37 °C and combined with 2 × 10^5 cells per mL cell suspension. Each well of a 20-well CometSlide was filled with 30 μL of the cell/agarose suspension. The slides were placed in a 4 °C refrigerator in the dark for 15 min to solidify. Slides were then immersed in 50 mL of pre-chilled lysis solution containing Trizma base, Triton X-100, DMSO and left at 4 °C for 30 min to facilitate cell membrane and histone removal. After draining excess liquid, the slides were transferred to 50 mL of freshly prepared (same day) alkaline DNA unwinding solution, (200 mmol/L NaOH, 1 mmol/L EDTA, pH > 13) and incubated at room temperature in the dark for 20 min. After the unwinding step, electrophoresis was performed at 21 V for 30 min. Slides were then rinsed with distilled water and fixed 5 min in 70% ethanol. Slides were dried and stained 5 min at 4 °C with SYBR Green I (Trevigen, Inc.) diluted 1:10000 in 10 mmol/L Tris pH 7.5, 1 mmol/L EDTA, drained to remove excess staining solution and thoroughly dried at room temperature in the dark. Micrographs were taken with a Zeiss LSM-800 confocal microscope (Zeiss, Oberkochen, Germany).
For assay [8], the target named is human TrxR1 (Homo sapiens, UniProt Q16881). To be noted: isolated human TrxR1.
Assay [9] relates to TrxR. The settings on record: 2008 cells, 18 h, 2.5 µM.
Method: TrxR inhibition was also evaluated in 2008 cells treated for 18 h with equimolar concentrations (2.5 µM) of all phosphino silver(I) derivatives and of AgNO3.
The 2008 cells were incubated for 18 h with tested compounds. Subsequently, cells were washed twice with Phosphate Buffer Solution (PBS) and lysed. TrxR activity was tested by measuring NADPH-dependent reduction of DTNB and glutathione peroxidase (GPx) activity was followed at 340 nm.
In assay [10] the test system is BxPC3 pancreatic cancer cells. The settings on record: read-out: IC50 (µM) ± S.D. BxPC3; 72 h, MTT test. For orientation: Formazan colour is commonly taken as a measure of viable cells.
The test system of assay [11] is C13* cisplatin-resistant ovarian cancer cells.
The test system of assay [12] is MCF-7 breast cancer cells. To be noted: read-out: IC50 (µM) ± S.D. MCF-7; 72 h, MTT test.
The test system of assay [13] is HCT-15 colon cancer cells. The settings on record: for times more effective than cisplatin, HCT-15: HCT-15 cells, 72 h MTT, versus cisplatin.
Assay [14] concerns A549 lung cancer cells. The settings on record: read-out: IC50 (µM) ± S.D. A549; 72 h, MTT test.
The test system of assay [15] is A375 melanoma cells. To be noted: read-out: IC50 (µM) ± S.D. A375; 72 h, MTT test.
In assay [16] the test system is A431 cervical carcinoma cells. The settings on record: read-out: IC50 (µM) ± S.D. A431; 72 h, MTT test.
For assay [17], the system named is 2008 ovarian cancer cells. The settings on record: read-out: IC50 (µM) ± D.S. 2008; 72 h, MTT test, cisplatin-sensitive cells.
Assay [18] has as its system human cancer cell line panel. The settings on record: read-out: average IC50; average over the six cancer cell lines, 72 h MTT.
Assay [19] deals with caspase-9. The settings on record: 2008 cells, IC50 concentration, 24 h.
Method: (§1) The 2008 cells (1 × 10^6) were treated for 24 h with the IC50 doses of tested compounds, harvested and homogenized in a lysis buffer [1% Triton X-100, 320 nM sucrose, 5 mM EDTA, 10 mM Tris–HCl and 2 mM DTT (1,4-dithio-DL-threitol) buffer (pH 7.6)]. Protein aliquots (100 μg) were stained at 37 °C for 60 min with fluorescent caspase-3 (N-Acetyl-Asp-Glu-Val-Asp-AMC, AMC = 7-amino-4-methylcoumarin) or caspase-9 (Ac-Leu-Glu-His-Asp-AMC) substrate (Sigma Co.). Substrate hydrolysis was measured after 60 min by monitoring the release of AMC using a spectrofluorometer (excitation at 370 nm, emission at 460 nm).
(§2) Effect of silver(I) compounds on caspase-3 and -9 activation. […] Data are the means of at least three independent experiments. Error bars indicate SD.
Assay [20] relates to CT-DNA.
Method: From the observed spectra, KSV was calculated according to the classical Stern–Volmer equation (Figure S16B).
The UV–Vis absorption spectroscopic studies and the DNA binding experiments were performed at
Experiments were performed by maintaining a fixed CT-DNA concentration (30
Sample solutions were scanned in the range
200−500 nm on a computer-controlled Varian Coulter DU 800 spectrophotometer.
EB–DNA competition experiments
The ethidium bromide (EB) displacement experiments were performed by titration with aliquots of
tested compounds of a Tris buffer solution containing 10 μM DNA (8.0–15 kbp) and 0.33 μM EB
(saturated binding levels). The fluorescence spectrum of the solution was obtained by exciting at 520
nm and measuring the emission spectra at 587 nm.
determined from the slope of the diagram F0/F versus r.
Assay [21] concerns 2008 cells. The settings on record: IC50 of compounds.
Method: The production of ROS was measured in 2008 cells (10^4 per well) grown for 24 h in a 96-well plate in RPMI medium without phenol red (Sigma Chemical Co.). Cells were then washed with PBS and loaded with 10 μM 5-(and-6)-chloromethyl-2′,7′-dichlorodihydrofluorescein diacetate acetyl ester (CM–H2DCFDA) (Molecular Probes-Invitrogen, Eugene, OR) for 25 min, in the dark. Afterwards, cells were washed with PBS and incubated with increasing concentrations of tested compounds. Fluorescence increase was estimated utilizing the wavelengths of 485 nm (excitation) and 527 nm (emission) in a Fluoroskan Ascent FL (Labsystems, Finland) plate reader.
Error bars indicate S.D. (B) effect of silver(I) compounds on hydrogen peroxide formation in 2008 cells. 2008 cells were pre-incubated in PBS/10 mM glucose medium for 20 min at 37 °C in presence of 10 µM CM-DCFDA and then treated with IC50 of silver(I) compounds.
For assay [22], the system named is 2008 cells. The settings on record: IC50 concentrations, 24 or 48 h.
Method: In particular, 2008 cells were treated for 24 or 48 h with IC50 concentrations of tested Ag(I) complexes, and the percentage of cells with hypopolarized mitochondrial membrane potential was determined fluorimetrically by means of the Mito-ID® Membrane Potential Kit.
The ΔΨ was assayed using the Mito-ID® Membrane Potential Kit according to the manufacturer’s instructions (Enzo Life Sciences, Farmingdale, NY). Briefly, 2008 cells (8 × 10^3 per well) were seeded in 96-well plates; after 24 h, cells were washed with PBS and loaded with Mito-ID Detection Reagent for 30 min at 37 °C in the dark. Afterwards, cells were incubated with increasing concentrations of tested complexes. Fluorescence intensity was estimated using a plate reader (Fluoroskan Ascent FL, Labsystems, Finland) at 490 (excitation) and 590 nm (emission). Carbonyl cyanide m-chlorophenyl hydrazone (CCCP, 4 μM), a chemical inhibitor of the oxidative phosphorylation, was used as positive control.
2008 cells were treated for 24 h or 48 h with IC50 concentrations of tested complexes or CCCP (3 μM). The percentage of cells with hypopolarized mitochondrial membrane potential was determined by Mito-ID® Membrane Potential Kit. Data are the means of three independent experiments. Error bars indicate S.D.
Assay [23] relates to 2008 cells. To be noted: 48 h, IC50 concentrations.
Method: About 10^6 2008 cells were seeded in 24-well plates and, after 24 h incubation, were treated with the tested compounds and incubated for additional 24 h. Cells were then washed with cold PBS, harvested and directly fixed with 1.5% glutaraldehyde buffer with 0.2 M sodium cacodylate, pH 7.4. After washing with buffer and postfixation with 1% OsO4 in 0.2 M cacodylate buffer, specimens were dehydrated and embedded in epoxy resin (Epon Araldite). Sagittal serial sections (1 μm) were counterstained with toluidine blue; thin sections (90 nm) were given contrast by staining with uranyl acetate and lead citrate. Micrographs were taken with a Hitachi H-600 electron microscope (Hitachi, Tokyo, Japan) operating at 75 kV.
Assay [24] concerns caspase-3. To be noted: 2008 cells, IC50, 24 or 48 h.
Method: as §1, §2
In assay [25] the test system is 2008 cells. To be noted: 24 h or 48 h.
Method: The 2008 cells (2 × 10^5) were seeded in a six-well plate in growth medium (4 mL). After 24 h, cells were incubated for 24 h with increasing concentrations of tested compounds. Subsequently, the thiol content was measured as previously described [43].
(A) Sulfhydryl content in 2008-treated cancer cells incubated for 24 h or 48 h with tested silver(I) compounds. The sulfhydryl group amount was determined by the DTNB assay.

Read-outs that look alike come from different tables or passages of the source.

caspase-9, sequence (P55211 whole entry): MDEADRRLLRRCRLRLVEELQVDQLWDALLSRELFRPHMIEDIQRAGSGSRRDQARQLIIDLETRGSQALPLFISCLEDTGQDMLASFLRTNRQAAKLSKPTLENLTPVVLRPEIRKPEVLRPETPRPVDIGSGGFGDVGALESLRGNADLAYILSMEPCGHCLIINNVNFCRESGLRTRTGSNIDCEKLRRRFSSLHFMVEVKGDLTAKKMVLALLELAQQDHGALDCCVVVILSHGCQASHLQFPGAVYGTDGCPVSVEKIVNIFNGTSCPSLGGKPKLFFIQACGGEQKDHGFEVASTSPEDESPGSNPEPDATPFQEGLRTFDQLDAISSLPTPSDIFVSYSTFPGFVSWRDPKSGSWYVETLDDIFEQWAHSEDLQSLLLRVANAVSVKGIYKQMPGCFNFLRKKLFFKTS
human TrxR1, sequence (Q16881 151-649 limits assumed): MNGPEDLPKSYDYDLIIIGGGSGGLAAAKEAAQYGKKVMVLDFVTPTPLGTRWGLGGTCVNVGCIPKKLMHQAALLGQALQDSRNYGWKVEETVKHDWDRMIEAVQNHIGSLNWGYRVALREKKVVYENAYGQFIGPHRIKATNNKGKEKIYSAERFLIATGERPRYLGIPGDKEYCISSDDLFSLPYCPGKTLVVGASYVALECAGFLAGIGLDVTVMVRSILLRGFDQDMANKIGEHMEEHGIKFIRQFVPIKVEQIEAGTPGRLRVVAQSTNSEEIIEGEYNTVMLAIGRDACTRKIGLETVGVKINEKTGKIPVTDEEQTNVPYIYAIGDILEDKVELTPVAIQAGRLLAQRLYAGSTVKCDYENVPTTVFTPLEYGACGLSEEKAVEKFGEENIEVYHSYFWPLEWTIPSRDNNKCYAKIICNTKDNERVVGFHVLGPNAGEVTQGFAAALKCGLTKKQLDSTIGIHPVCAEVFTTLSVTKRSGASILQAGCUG

`CC(=O)N1CN2CN(C(C)=O)CP(C2)C1` [DAPTA, 3,7-diacetyl-1,3,7-triaza-5-phosphabicyclo [3.3.1]nonane]: the IC50 in assay [1] is 85.3 ± 4 µM; in assay [2], over 100 µM; in assay [3], over 100 µM; in assay [4], 89.5 ± 4.1 µM; in assay [5] it was 67.1 ± 3.1 µM; in assay [6], over 100 µM.
Take `N#CCCP(CCC#N)CCC#N` [PCN, tris(cyanoethyl)phosphine]: the IC50 in assay [1], in assay [2], in [3], in assay [4], in assay [5] and in assay [6] was over 100 µM throughout.
As for `c1ccc(P(c2ccccc2)c2ccccc2)cc1` [PPh3, triphenylphosphine], the IC50 in assay [1] stood at 34.2 ± 3.4 µM; in assay [2] it was 47.5 ± 1.1 µM; in assay [3], 52.3 ± 2.5 µM; in assay [4], 62.2 ± 2.2 µM; in [5] it was 54.1 ± 4.2 µM; in assay [6], 30.1 ± 2.1 µM. In assay [7], the “DNA damage in comet assay, in words” value is “scarcely effective in increasing comet tail lengths”.
With `C1N2CN3CN1CP(C2)C3` [PTA, 1,3,5-triaza-7-phosphaadamantane], the concentration for half-maximal inhibition (IC50) in assay [1], in assay [2], in assay [3], in assay [4], in assay [5] and in [6] was over 100 µM each time.
In the case of `O=S1(=O)N2CN3CN1CP(C3)C2` [PTA-SO2], the IC50 is 69.5 ± 3.4 µM in assay [1]; 56 ± 3.5 µM in [2]; over 100 µM in assay [3]; over 100 µM in [4]; over 100 µM in assay [5]; over 100 µM in assay [6].
In the case of AgNO3, in [8], the “TrxR1 inhibition, in words” value was “effective in inhibiting the redox enzyme activity at nanomolar level”. The “reduction of total cellular TrxR activity” value (“reduction” for short) in assay [9] is on record as 12%.
In the case of Cisplatin, the IC50 in assay [10] turned out to be 10.2 ± 1.7 µM; in assay [11] (read-out: IC50 (µM) ± D.S. C13*, 72 h, MTT test, cisplatin-resistant cells), 21.5 ± 3 µM; in assay [12] it was 7.6 ± 3 µM; in assay [13] (read-out: IC50 (µM) ± S.D. HCT-15, 72 h, MTT test) it was 15.5 ± 2.5 µM; in assay [14], 8.4 ± 0.9 µM; in assay [15] it was 4 ± 1 µM. Also, the IC50 in [16] is 2.1 ± 0.4 µM; in assay [17], 2.3 ± 1.1 µM; in [18], 7.9 µM. Also, the RF in assay [11] (RF = IC50 resistant/IC50 parental cell lines (C13*/2008)) amounted to 9.5.
Consider [Ag(PCN)2]BF4 [Compound 9], for which the “times more effective than cisplatin, HCT-15” value in assay [13] is listed as “roughly 4.4 fold”. In addition, the “reduction” value in assay [9] is reported as “about 70%”.
On to [Ag(PPh3)4]BF4 [Compound 10], for which, in assay [19], the “enhancement in caspase-9 activity compared to control cells” value came out at 2.6 fold. The “modification of DNA absorption bands” value in [20] is “no significant modifications in DNA properties”. For the same compound, the “basal ROS / hydrogen peroxide production” value in [21] is given as “increase in basal hydrogen peroxide formation rather similar to that obtained with antimycin”. Moreover, the “times more effective than cisplatin, HCT-15” value in assay [13] was “roughly 4.4 fold”. Also, in assay [9], the “reduction” value is reported as “about 75%”. Besides, in assay [22], the “cells with hypopolarized mitochondrial membrane potential” value was “increase in the percentage of hypopolarized cells similar to that induced by reference compound carbonyl cyanide-m-chlorophenylhydrazone (CCCP)”. Further, the “mitochondrial morphology by TEM” value in assay [23] is “mitochondria with disrupted cristae and a significant increase in volume (swelling)”. Besides, the “DNA damage in comet assay, in words” value in [7] was “barely effective in provoking DNA damage”. Moreover, in assay [24], the caspase-3 activation result is listed as “time-dependent activation of caspase-3”. For the same compound, the cellular sulfhydryl content result in assay [25] is “lowest levels of cellular sulfhydryl groups”.
As for [HB(pz)3]Ag(PPh3) [Compound 5], the “enhancement in caspase-9 activity compared to control cells” value in assay [19] came to 3.3 fold. For the same compound, the “modification of DNA absorption bands” value in assay [20] is reported as “slight hyperchromic effect at 263 nm”. The “basal ROS / hydrogen peroxide production” value in [21] is “increase in basal hydrogen peroxide formation rather similar to that obtained with antimycin”. The “times more effective than cisplatin, HCT-15” value in assay [13] is “about 7 fold”. For the same compound, the “reduction” value in [9] was “about 75%”. Further, the “cells with hypopolarized mitochondrial membrane potential” value in [22] is on record as “increase in the percentage of hypopolarized cells similar to that induced by reference compound carbonyl cyanide-m-chlorophenylhydrazone (CCCP)”. Besides, the “mitochondrial morphology by TEM” value in assay [23] was “mitochondria with disrupted cristae and a significant increase in volume (swelling)”. Further, in assay [7] (IC50 dose), the “increase of well-formed comets” value is listed as “about 69%”. For the same compound, in assay [24], the caspase-3 activation entry is “time-dependent activation of caspase-3”. The cellular sulfhydryl content entry in [25] was “lowest levels of cellular sulfhydryl groups”.

As a reminder, the IC50 is the concentration at which inhibition is half-maximal.
